Results reported in patent US6620841B1, “Aromatic heterocycle compounds having HIV integrase inhibiting activities” (Shionogi & Co., Ltd., priority 1998, dated 2003).
pIC50: −log10 of the molar value. ≈ marks a conversion by molar mass, not a printed value. Where two headings read alike, the source gives them in different places.

Key:
[1] = test system: feline immunodeficiency virus (FIV TM-2 strain); assay: Anti-FIV activity in MYA-1 feline T-cells, virus amount by RT activity; type: cell-based; details: FIV TM-2 in MYA-1 cells, RT activity at 10 days postinfection
Experimental: (1) The serial 5 fold diluted samples were plated in 24 well microtiter plate. Feline T-cell lines (MYA-1 cells: 4×10^5 cells/well) and feline immunodeficiency virus (FIV TM-2 strain: 3000 cpm/well) were added to each well. The cells were cultured with 1.5 ml RPMI medium supplemented with 10% fetal bovine serum, 2 μg/ml polybrene, 100 unit/ml human recombinant IL-2 and 50 μM 2-mercaptoethanol in CO2 incubator at 37° C.
1. Preparation of FIV TM-2: FIV TM-2 was infected to MYA-1 cells (1×10^6 cells). The cells were cultured in 10 ml RPMI medium supplemented with 10% fetal bovine serum, 2 μg/ml polybrene, 100 unit/ml human recombinant IL-2 and 50 μM 2-mercaptoethanol in CO2 incubator at 37° C. Every 1-2 days, the cells were separated from the supernatant by centrifugation and continued culture with new medium. Each of the supernatant was filtrated by 0.45 μm filter, measured RT activity, and stored at as −80° C. as FIV stock virus.
(2) Every 1-2 days, the supernatants were measured the amount of the virus by RT activity (as same as experimental example 2).

SIVmac MA239 = assay: Anti-HIV/SIV activity in infected Molt-4 cells, virus amount by RT activity; type: cell-based; details: RT activity of supernatant at 5 days postinfection
Experimental: (§1) (1) Molt-4 cells (2×10^6 cells) were infected with HIV-1 NL432 (4×10^6 cpm), HIV-2 Rod (8×10^6 cpm), SIVmac MA239 (8×10^6 cpm) and SIVagm SA212 (8×10^6 cpm), and incubated for 1 hr at room temperature.
(§2) (3) Preparation of SIVmac MA239: SW480 cells were cultured in DMEM medium supplemented with 10% fetal bovine serum using 25 cm^2 flask. SIVmac MA239 infectious molecular DNA (40 μg), pMA239, transfected to the cells by calcium phosphate coprecipitation method, and the supernatant (2 ml) at 2-3 days post-transfection was infected to CEMX174 cells (1×10^6 cells). The cells were cultured in 10 ml RPMI medium supplemented with 10% fetal bovine serum in CO2 incubator at 37° C. After apparent giant cells were observed, the cells were removed by centrifugation and then the supernatant was filtrated by 0.45 μm filter, measured RT activity, and stored at −80° C. as SIVmac stock virus.
(§3) (2) The cells were washed twice to remove the viruses and suspended in 10 ml RPMI medium supplemented with 10% fetal bovine serum. The infected cells (100 μl) were plated in 96 well microtiter plates containing with the serial 5 fold dilution of compounds (100 μl) and cultured in CO2 incubator at 37° C.
(§4) (3) The supernatant at 5 days postinfection was harvested and measured the amount of the virus by RT activity.
(§5) Preparation of the solution for RT assay:
(§6) A reaction mixture (90 μl) were contained 50 mM Tris-HCl, pH 8.3, 150 mM KCl, 10 mM MgCl2, 0.1% Nonidet P-40, 10 mM DTT (dithiothreitol), 5 μg/ml poly(rA), 5 μg/ml (dT)12-18 and 1 μCi [^3H] dTTP at final concentration after mixture of a sample (10 μl).
(§7) The procedure of RT assay:
(§8) 1. 10 μl of sample was plated to 3 wells of 96 well microtiter plate (triplicate assay).
(§9) 2. Reaction mixture (90 μl) chilled at 4° C. was added to each well, mixed and then incubate at 37° C. for 3 hrs.
(§10) 3. After incubation, the plate was chilled on ice, and passed through a DEAE-Filtermat using cell harvester. The filter was washed with 4.5% Na2HPO4 (20 sec) and H2O (10 sec).
(§11) 4. The filter was dried at 95° C. for 15 min.
(§12) 5. 10 ml of scintilator was added and sealed.
(§13) 6. Radioactivity was measured by LKB Beta Plate scintillation spectroscopy.
(§14) 7. RT activity (cpm/ml) was calculated from average of three wells.

SIVagm SA212 = assay: as above; type: cell-based; details: RT activity of supernatant at 5 days postinfection
Experimental: as §1
(4) Preparation of SIVagm SA212: SW480 cells were cultured in DMEM medium supplemented with 10% fetal bovine serum using 25 cm^2 flask. SIVagm SA212 infectious molecular DNA (40 μg), pSA212, transfected to the cells by calcium phosphate coprecipitation methods, and the supernatant (2 ml) at 2-3 days post-transfection was infected to M8166 cells (1×10^6 cells). The cells were cultured in 10 ml RPMI medium supplemented with 10% fetal bovine serum in CO2 incubator at 37° C. Every 3 days, the cells were separated from the supernatant by centrifugation and continued culture with new medium. The each supernatant was filtrated by 0.45 μm filter, measured RT activity, and stored at −80° C. as SIVagm stock virus.
as §3, §4, §5, §6, §7, §8, §9, §10, §11, §12, §13, §14

HIV-1 NL432 = assay: as above; type: cell-based; details: RT activity of supernatant at 5 days postinfection
Experimental: as §1
as §2, with “(1)” for “(3)”, “HIV-1 NL432:” for “SIVmac MA239:”, “HIV-1” for “SIVmac MA239”, “pNL432,” for “pMA239,”, “M8166” for “CEMX174”, “HIV-1” for “SIVmac”
as §3, §4, §5, §6, §7, §8, §9, §10, §11, §12, §13, §14

HIV-2 Rod = assay: as above; type: cell-based; details: RT activity of supernatant at 5 days postinfection
Experimental: as §1
(2) Preparation of […] Rod: HIV-2 Rod was infected to M8166 cells (1×10^6 cells). The cells were cultured in 10 ml RPMI medium supplemented with 10% fetal bovine serum in CO2 incubator at 37° C. After apparent giant cells were observed, the cells were removed by centrifugation and then the supernatant was filtrated by 0.45 μm filter, measured RT activity, and stored at −80° C. as HIV-2 stock virus.
as §3, §4, §5, §6, §7, §8, §9, §10, §11, §12, §13, §14

HIV-1 integrase = HIV-1 integrase (Human immunodeficiency virus type 1 group M subtype B, UniProt P12497); assay: HIV-1 integrase inhibition assay (microtiter plate, substrate/target DNA, OD 405 nm)
Experimental: (2) Calculations of the Percent Inhibitions (the IC50 Values of Test Compounds)
Streptavidin, obtained from Vector Laboratories, was dissolved in 0.1 M carbonate buffer (composition: 90 mM Na2CO3, 10 mM NaHCO3) at concentration of 40 μg/ml. After coating each well of microtiter plates (obtained from NUNC) with 50 μl of the above solution at 4° C. over night, each well was washed twice with PBS (composition: 13.7 mM NaCl, 0.27 mM KCl, 0.43 mM Na2HPO4, 0.14 mM KH2PO4) and blocked with 300 μl of 1% skim milk in PBS for 30 min. Additionally, each well was washed twice with PBS and added 50 μl of substrate DNA solution (2 pmol/μl). The microtiter plates were kept at room temperature for 30 min. Then, each well was washed twice with PBS and once with H2O.
Subsequently, in the each well prepared above were added 45 μl of the reaction buffer prepared from 12 μl of the buffer (composition: 150 mM MOPS (pH 7.2), 75 mM MnCl2, 50 mM 2-mercaptoethanol, 25% glycerol, 500 μg/ml bovine serum albumin-fraction V), 1 μl of target DNA (5 pmol/μl), and 32 μl of the distilled water. Additionally, 6 μl of either a test compound in DMSO or DMSO for positive control(PC) was mixed with the above reaction buffer, then 9 μl of an integrase solution (30 pmol) was added and mixed well. In the well of negative control (NC) was added 9 μl of the integrase dilution buffer (composition: 20 mM MOPS (pH7.2), 400 mM potassium glutamate, 1 mM EDTA, 0.1% NP-40, 20% glycerol, 1 mM DTT, 4M urea).
The microtiter plates were incubated at 30° C. for 1 hour. The reaction solution was removed and each well was washed twice with PBS. Subsequently, each well of the microtiter plates was filled with 100 μl of anti-digoxigenin antibody labeled with alkaline phosphatase (Sheep Fab fragment: obtained from Boehringer) and incubated at 30° C. for 1 hour. Then, each well was washed twice with 0.05% Tween20 in PBS and once with PBS. Next, 150 μl of the Alkaline phosphatase reaction buffer (composition: 10 mM p-Nitrophenylphosphate (obtained from Vector Laboratories), 5 mM MgCl2, 100 mM NaCl, 100 mM Tris-HCl (pH 9.5))was added in each well. […] The optical density (OD) at 405 nm of each well was measured and the percent inhibition was determined by the following expression.
The percent inhibition (%)=100[1-{(C abs.−NC abs.)/(PC abs.−NC abs.)}]
C abs.; the OD of the well of the compounds
NC abs.: the OD of the negative control (NC)
PC abs.: the OD of the positive control (PC)
IC50(μg/ml)=x−{(X−50)(x−y)/(X−Y)}

[2] = Simian immunodeficiency virus, 120 h

| SMILES | Anti-HIV/SIV activity EC50, SIVmac (SIVmac MA239) | Anti-HIV/SIV activity EC50, SIVagm (SIVagm SA212) | Anti-HIV/SIV activity EC50, HIV-1 NL432 (HIV-1 NL432) | Anti-HIV/SIV activity EC50, HIV-2 Rod (HIV-2 Rod) | melting point | pIC50 (HIV-1 integrase) | further results |
| --- | --- | --- | --- | --- | --- | --- | --- |
| O=C(/C=C(\O)c1nc[nH]n1)c1ccc(Cc2ccc(F)cc2)o1 [I-42, 1-[5-(4-fluorobenzyl)furan-2-yl]-3-hydroxy-3-(1H-1,2,4-triazol-3-yl)-propenone] |  |  |  |  |  |  | EC50 ([1]; Feline immunodeficiency virus, T-cell, 240 h, read-out: EC50): 0.3 µg/mL (≈ 0.958 µM) |
| Cc1ccnc2c1NC(=O)c1cccnc1N2C1CC1 [nevirapine] |  |  |  |  |  |  | EC50 (SIVmac MA239; [2]): > 20 µg/mL; EC50 (SIVagm SA212; [2]): > 20 µg/mL; EC50 (HIV-1 NL432; Human immunodeficiency virus 1, 120 h): 0.013 µg/mL (≈ 0.0488 µM); EC50 (HIV-2 Rod; Human immunodeficiency virus 2, 120 h): > 20 µg/mL |
| CC(C)c1nc(COC(N)=O)n(Cc2ccncc2)c1Sc1cc(Cl)cc(Cl)c1 [S-1153] | >4 µg/mL | 1.5 µg/mL | 0.00077 µg/mL | >4 µg/mL |  |  | EC50 [1]: >5 µg/mL |
| Cc1cn([C@H]2C=C[C@@H](CO)O2)c(=O)[nH]c1=O [d4T] | 0.0034 µg/mL | 0.0045 µg/mL | 0.0061 µg/mL | 0.0041 µg/mL |  |  |  |
| CC(C)c1nc(C(O)=CC(=O)c2ccc(Cc3ccc(F)cc3)o2)n[nH]1 [I-99, 1-[5-(4-Fluorobenzyl)furan-2-yl]-3-hydroxy-3-(5-isopropyl-1H-1,2,4-triazol-3-yl)-propenone] |  |  |  |  | 146 to 147 °C | 5.73 |  |
| Nc1ccn([C@@H]2CS[C@H](CO)O2)c(=O)n1 [3TC] | 0.0091 µg/mL | 0.022 µg/mL | 0.0084 µg/mL | 0.022 µg/mL |  |  |  |
| COC(=O)C(O)=CC(=O)c1ccc(Cc2ccc(F)cc2)o1 [I-53, 4-[5-(4-Fluorobenzyl)furan-2-yl]-2-hydroxy-4-oxo-2-butenoic acid methyl ester] |  |  |  |  | 102 to 104 °C | 5.10 |  |
| Cc1cn([C@H]2C[C@H](N=[N+]=[N-])[C@@H](CO)O2)c(=O)[nH]c1=O [AZT] | 0.00035 µg/mL | 0.00036 µg/mL | 0.00051 µg/mL | 0.00028 µg/mL |  |  | EC50 [1]: 0.048 µg/mL (≈ 0.18 µM) |
| O=C(C=C(O)c1nc[nH]n1)c1ccc(C(O)c2ccc(F)cc2)o1 (centres unmarked) [I-94, 1-[5-(4-Fluorophenyl-hydroxy-methyl)furan-2-yl]-3-hydroxy-3-(1H-1,2,4-triazol-3-yl)-propenone] |  |  |  |  | 191 to 192 °C (dec.) | 5.31 |  |
